Experimental data as given in patent US20070054353A1, “Nuclear receptor transcriptional corepressor and uses thereof” (priority 2002, published 2007).

Tests used:
Assay type in all cases: cell-based
ERα = target: T1, ERα (Homo sapiens, UniProt P03372); test: Transient transfection luciferase reporter, ERα transactivation in COS-7 cells; conditions: TSA 3 μM, COS-7 cells
T1 construct: expressed in transfected cells; host or cells: COS-7
T1 sequence (P03372 1-595): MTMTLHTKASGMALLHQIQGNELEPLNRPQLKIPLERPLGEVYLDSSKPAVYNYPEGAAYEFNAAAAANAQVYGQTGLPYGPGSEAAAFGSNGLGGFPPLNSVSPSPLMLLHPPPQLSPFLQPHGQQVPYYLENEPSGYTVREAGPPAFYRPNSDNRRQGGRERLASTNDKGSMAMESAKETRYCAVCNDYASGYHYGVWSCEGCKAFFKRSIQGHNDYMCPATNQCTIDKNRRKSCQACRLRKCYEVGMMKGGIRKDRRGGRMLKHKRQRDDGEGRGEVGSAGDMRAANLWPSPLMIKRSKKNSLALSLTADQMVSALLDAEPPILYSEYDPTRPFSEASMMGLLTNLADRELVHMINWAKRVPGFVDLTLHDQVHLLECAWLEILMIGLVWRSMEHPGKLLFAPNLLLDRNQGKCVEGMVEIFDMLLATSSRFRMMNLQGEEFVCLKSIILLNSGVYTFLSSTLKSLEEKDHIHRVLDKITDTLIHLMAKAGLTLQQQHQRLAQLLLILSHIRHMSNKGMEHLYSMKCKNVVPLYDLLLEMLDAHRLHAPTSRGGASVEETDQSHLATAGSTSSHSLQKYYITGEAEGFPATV
Experimental: (§1) All cell lines were cultured under the recommended conditions. COS-7 cells grown in […] in DMEM without phenol red, supplemented with 10% FBS were transfected in medium without serum with lipofectamine 2000 (Invitrogen, Burlington, Ont.) with 100 ng of nuclear receptor expression vectors as indicated, 200 ng of TIF-2 or TIF-2.1, as indicated, 250 ng of reporter plasmid, 250 ng of infemal control vector pCMV-βgal, and various concentrations of LCoR/pSG5 or LCoR-LSKAA/pSG5 expression vectors and pSG5 carrier. Medium was replaced 24 h after transfection by a medium containing charcoal-stripped serum and ligand (100 nM) and TSA (3 μM) for 18 h, as indicated. Cells were harvested in 200 […] of reporter lysis buffer (Promega).
(§2) COS-7 cells were cotransfected with expression vectors for ERα HEG0 (A and C) or GR (D) or PR (F) or VDR (H), ERE3-TATA-pXP2 (A and C), GRE5/pXP2 (D and F) or VDRE3tk/pXP2 (H) luciferase reporter vectors, pCMV-β-gal as internal control, and LCoR/pSG5 or LSKAA/pSG5 expression vectors as indicated. Cells were treated with 10^−7M of hormones (solid bars) or vehicle (open bars). Normalized luciferase activities (RLU) are the means±SEM from at least 3 experiments. […] Cells were transfected as in FIG. 5A with LCoR, TIF-2 or TIF2.1 as indicated. […]

PR = target: T2, PR (Homo sapiens, UniProt P06401); test: Transient transfection luciferase reporter, PR transactivation in COS-7 cells; conditions: TSA 3 μM, COS-7 cells
T2 construct: expressed in transfected cells; host or cells: COS-7
T2 sequence (P06401 1-933): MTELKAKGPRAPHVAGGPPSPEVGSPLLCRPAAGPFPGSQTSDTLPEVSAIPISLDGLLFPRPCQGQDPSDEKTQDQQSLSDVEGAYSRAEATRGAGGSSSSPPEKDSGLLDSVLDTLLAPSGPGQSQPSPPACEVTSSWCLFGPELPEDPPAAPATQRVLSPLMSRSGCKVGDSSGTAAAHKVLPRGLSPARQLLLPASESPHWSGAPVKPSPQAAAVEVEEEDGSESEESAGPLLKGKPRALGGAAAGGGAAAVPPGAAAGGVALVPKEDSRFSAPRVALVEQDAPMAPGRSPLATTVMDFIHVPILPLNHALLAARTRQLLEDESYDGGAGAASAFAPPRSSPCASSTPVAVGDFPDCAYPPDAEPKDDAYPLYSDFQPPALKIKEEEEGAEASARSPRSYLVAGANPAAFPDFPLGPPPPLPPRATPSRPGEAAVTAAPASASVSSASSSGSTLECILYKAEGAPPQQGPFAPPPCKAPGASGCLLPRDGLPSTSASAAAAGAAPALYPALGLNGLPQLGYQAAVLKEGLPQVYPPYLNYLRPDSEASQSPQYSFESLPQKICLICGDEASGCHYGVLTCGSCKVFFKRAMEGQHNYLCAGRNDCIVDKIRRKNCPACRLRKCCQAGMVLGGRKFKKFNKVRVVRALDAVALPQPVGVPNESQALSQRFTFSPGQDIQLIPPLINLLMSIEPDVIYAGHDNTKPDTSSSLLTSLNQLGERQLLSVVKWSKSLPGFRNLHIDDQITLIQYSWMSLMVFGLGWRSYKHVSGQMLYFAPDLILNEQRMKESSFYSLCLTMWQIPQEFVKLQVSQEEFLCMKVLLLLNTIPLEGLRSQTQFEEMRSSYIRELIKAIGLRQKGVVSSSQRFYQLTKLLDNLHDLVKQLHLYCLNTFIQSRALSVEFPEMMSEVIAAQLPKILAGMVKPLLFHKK
Experimental: as §1, §2

VDR = target: T3, VDR (Homo sapiens, UniProt P11473); test: Transient transfection luciferase reporter, VDR transactivation in COS-7 cells; conditions: TSA 3 μM, COS-7 cells
T3 construct: expressed in transfected cells; host or cells: COS-7
T3 sequence (P11473 1-427): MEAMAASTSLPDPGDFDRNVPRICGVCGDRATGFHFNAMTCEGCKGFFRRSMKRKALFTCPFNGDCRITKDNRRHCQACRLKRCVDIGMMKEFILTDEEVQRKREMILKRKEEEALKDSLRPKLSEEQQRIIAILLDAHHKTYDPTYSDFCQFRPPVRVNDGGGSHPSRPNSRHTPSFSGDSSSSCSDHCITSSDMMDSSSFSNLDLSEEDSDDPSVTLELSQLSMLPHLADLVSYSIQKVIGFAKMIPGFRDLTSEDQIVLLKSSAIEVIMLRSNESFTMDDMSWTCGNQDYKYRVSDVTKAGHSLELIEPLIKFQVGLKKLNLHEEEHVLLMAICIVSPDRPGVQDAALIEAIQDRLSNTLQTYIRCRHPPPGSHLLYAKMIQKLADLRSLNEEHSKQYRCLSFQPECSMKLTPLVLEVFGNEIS
Experimental: as §1, §2

5×17 mer-tk promoter = test: GAL4-LCoR repression of 5×17 mer-tk promoter in COS-7 cells; conditions: TSA 3 μM
Experimental: as §1, §2

CC(/C=C/C(=O)NO)=C\[C@@H](C)C(=O)c1ccc(N(C)C)cc1 [TSA, trichostatin A]
effect on LCoR-dependent repression of ERα function (ERα): completely abolished | effect on LCoR repression of PR function (PR): little or no effect | effect on LCoR repression of VDR function (VDR): little or no effect | effect on repression by GAL-LCoR (5×17 mer-tk promoter): little or no effect
